Laboratory results as given in ChEMBL document CHEMBL5291721, “A preclinical secondary pharmacology resource illuminates target-adverse drug reaction associations of marketed drugs” (Nat Commun, 2023).
Where a SMILES comes first, the peptide text is derived from it. [ ]: non-standard residue; d: D form. pGlu = O=C1CC[C@@H](C(=O)O)N1; Thz = O=C(O)[C@@H]1CSCN1

Legend:
[1] = molecular target: Beta-2 adrenergic receptor (Homo sapiens, UniProt P07550)
[2] = molecular target: Sodium-dependent noradrenaline transporter (Homo sapiens, UniProt P23975)
Sodium-dependent noradrenaline transporter, sequence (P23975 whole entry): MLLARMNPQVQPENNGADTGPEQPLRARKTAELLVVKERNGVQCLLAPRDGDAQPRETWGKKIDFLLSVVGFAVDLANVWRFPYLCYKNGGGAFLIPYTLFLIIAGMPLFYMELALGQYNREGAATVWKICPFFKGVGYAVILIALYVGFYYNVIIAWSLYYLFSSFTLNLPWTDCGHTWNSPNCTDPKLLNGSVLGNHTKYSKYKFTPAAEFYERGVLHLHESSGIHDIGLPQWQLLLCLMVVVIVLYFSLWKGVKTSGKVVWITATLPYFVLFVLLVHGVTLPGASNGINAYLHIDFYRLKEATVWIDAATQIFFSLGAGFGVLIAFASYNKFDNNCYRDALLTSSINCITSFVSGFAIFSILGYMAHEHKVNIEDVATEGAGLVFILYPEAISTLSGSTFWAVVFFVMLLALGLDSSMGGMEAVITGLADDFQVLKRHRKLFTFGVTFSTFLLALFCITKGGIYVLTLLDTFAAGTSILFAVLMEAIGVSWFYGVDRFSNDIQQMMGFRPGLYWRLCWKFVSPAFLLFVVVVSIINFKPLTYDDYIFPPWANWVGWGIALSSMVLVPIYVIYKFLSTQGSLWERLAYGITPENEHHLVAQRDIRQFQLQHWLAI

[3] = molecular target: Growth hormone secretagogue receptor type 1 (Homo sapiens, UniProt Q92847)
Growth hormone secretagogue receptor type 1, sequence (Q92847 whole entry): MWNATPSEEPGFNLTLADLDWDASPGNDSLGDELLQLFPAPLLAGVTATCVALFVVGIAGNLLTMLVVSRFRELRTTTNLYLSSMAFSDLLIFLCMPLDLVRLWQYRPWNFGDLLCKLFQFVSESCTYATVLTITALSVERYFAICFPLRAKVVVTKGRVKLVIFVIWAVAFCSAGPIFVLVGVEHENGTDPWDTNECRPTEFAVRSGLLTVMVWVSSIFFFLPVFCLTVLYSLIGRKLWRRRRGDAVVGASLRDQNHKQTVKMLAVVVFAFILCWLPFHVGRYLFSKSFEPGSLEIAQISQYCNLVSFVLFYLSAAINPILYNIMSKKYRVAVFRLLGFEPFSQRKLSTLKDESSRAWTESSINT

[4] = molecular target: T1, Equilibrative nucleoside transporter 1 (Homo sapiens, UniProt Q99808)
T1 sequence (Q99808 whole entry): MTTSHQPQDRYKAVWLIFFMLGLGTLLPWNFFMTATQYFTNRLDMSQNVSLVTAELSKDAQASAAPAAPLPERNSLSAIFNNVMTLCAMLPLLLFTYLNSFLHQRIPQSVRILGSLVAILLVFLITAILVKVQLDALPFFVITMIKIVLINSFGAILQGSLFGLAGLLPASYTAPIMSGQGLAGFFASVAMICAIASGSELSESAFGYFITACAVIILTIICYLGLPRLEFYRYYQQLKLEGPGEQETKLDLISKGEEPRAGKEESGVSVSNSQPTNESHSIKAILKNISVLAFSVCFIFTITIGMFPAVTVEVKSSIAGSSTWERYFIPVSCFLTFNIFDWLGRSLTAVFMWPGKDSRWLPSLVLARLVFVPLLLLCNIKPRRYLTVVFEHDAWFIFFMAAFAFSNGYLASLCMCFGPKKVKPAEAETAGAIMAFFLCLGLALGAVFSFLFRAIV

[5] = molecular target: Vasopressin V1a receptor (Homo sapiens, UniProt P37288)
Vasopressin V1a receptor, sequence (P37288 whole entry): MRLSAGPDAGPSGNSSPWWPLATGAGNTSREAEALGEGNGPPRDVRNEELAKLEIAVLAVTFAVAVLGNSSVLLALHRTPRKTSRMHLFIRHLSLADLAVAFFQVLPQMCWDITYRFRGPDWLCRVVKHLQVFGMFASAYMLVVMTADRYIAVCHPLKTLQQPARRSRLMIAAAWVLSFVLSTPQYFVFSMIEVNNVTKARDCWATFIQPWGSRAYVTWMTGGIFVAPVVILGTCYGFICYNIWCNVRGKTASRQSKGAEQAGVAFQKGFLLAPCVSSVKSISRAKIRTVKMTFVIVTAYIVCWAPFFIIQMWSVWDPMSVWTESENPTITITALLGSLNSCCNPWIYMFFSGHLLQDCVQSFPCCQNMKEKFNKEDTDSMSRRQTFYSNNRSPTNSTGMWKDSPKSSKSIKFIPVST

[6] = molecular target: Sodium-dependent dopamine transporter (Homo sapiens, UniProt Q01959)
Sodium-dependent dopamine transporter, sequence (Q01959 whole entry): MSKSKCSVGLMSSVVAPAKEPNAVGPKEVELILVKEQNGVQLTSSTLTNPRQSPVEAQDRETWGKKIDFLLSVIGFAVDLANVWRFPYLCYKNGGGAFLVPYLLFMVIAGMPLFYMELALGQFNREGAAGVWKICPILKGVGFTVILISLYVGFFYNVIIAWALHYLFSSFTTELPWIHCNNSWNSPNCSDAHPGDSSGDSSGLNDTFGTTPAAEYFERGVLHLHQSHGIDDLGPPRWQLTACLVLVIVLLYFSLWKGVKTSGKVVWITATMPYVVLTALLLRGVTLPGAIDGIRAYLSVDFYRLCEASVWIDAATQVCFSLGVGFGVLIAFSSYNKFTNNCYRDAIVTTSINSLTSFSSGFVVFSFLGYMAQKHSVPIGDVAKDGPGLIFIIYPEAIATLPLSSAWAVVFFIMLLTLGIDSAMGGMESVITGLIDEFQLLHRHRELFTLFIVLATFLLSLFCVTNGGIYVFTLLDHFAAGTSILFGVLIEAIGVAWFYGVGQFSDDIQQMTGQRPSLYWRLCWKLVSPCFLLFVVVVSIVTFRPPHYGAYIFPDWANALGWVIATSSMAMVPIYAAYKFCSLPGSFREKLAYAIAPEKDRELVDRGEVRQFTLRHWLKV

[7] = molecular target: T2, Muscarinic acetylcholine receptor M2 (Homo sapiens, UniProt P08172); assay type: functional, cell-based
T2 sequence (P08172 whole entry): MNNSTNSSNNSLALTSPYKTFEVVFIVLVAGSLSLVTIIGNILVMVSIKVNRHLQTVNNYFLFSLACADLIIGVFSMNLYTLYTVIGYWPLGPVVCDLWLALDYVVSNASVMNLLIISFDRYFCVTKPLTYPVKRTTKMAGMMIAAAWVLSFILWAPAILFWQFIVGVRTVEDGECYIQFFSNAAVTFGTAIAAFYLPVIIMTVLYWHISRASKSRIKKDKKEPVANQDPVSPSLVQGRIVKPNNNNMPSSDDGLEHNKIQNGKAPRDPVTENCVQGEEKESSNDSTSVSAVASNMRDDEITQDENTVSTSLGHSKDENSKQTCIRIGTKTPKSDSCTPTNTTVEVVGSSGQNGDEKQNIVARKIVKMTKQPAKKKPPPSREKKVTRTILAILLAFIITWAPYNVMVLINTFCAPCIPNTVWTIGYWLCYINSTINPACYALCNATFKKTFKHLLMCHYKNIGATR

[8] = molecular target: 5-hydroxytryptamine receptor 2B (Homo sapiens, UniProt P41595); assay type: functional, cell-based
5-hydroxytryptamine receptor 2B, sequence (P41595 whole entry): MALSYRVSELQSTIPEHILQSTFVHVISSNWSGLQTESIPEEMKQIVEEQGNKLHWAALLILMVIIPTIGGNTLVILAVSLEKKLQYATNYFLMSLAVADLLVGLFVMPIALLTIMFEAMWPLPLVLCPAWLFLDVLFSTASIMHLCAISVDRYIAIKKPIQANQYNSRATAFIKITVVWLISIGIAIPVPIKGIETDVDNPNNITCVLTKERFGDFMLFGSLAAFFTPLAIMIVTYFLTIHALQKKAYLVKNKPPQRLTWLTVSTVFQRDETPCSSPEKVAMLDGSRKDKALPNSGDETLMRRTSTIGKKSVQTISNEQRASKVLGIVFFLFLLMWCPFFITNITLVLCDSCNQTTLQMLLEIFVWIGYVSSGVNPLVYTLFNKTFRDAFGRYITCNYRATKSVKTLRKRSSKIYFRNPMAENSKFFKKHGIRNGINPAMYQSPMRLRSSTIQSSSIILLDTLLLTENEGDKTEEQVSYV

[9] = molecular target: T3, Thromboxane A2 receptor (Homo sapiens, UniProt P21731)
T3 sequence (P21731 whole entry): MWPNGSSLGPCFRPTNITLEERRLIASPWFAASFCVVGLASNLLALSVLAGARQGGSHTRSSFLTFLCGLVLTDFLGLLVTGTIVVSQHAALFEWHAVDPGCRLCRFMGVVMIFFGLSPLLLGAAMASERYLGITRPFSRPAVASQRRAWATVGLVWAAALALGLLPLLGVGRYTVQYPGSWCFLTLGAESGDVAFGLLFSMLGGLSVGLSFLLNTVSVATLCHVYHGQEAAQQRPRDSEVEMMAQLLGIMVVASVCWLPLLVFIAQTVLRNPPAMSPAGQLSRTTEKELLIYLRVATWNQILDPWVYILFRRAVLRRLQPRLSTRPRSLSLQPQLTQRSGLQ

[10] = molecular target: T4, Glucocorticoid receptor (Homo sapiens, UniProt P04150)
T4 sequence (P04150 whole entry): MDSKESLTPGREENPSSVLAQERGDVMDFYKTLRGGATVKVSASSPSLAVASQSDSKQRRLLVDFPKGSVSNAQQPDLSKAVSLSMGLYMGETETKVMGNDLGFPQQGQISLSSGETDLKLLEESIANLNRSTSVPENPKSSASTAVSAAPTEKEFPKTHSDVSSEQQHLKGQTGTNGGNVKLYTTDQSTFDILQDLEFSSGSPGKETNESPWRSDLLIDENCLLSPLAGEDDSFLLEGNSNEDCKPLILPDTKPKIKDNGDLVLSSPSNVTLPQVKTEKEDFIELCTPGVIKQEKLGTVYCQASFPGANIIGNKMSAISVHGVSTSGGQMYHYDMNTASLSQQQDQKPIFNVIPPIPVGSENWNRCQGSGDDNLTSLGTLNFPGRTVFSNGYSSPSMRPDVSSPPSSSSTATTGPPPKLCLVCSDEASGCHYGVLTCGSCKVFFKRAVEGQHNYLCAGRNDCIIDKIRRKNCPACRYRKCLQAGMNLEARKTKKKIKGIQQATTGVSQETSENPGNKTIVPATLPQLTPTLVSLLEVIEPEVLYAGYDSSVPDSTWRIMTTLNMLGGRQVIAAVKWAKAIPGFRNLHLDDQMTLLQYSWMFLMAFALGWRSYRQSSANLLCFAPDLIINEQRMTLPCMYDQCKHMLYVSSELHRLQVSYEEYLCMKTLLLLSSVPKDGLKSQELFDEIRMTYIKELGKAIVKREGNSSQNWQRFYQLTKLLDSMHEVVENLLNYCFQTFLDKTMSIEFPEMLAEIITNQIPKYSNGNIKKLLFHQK

[11] = molecular target: T5, Gastrin/cholecystokinin type B receptor (Homo sapiens, UniProt P32239)
T5 sequence (P32239 whole entry): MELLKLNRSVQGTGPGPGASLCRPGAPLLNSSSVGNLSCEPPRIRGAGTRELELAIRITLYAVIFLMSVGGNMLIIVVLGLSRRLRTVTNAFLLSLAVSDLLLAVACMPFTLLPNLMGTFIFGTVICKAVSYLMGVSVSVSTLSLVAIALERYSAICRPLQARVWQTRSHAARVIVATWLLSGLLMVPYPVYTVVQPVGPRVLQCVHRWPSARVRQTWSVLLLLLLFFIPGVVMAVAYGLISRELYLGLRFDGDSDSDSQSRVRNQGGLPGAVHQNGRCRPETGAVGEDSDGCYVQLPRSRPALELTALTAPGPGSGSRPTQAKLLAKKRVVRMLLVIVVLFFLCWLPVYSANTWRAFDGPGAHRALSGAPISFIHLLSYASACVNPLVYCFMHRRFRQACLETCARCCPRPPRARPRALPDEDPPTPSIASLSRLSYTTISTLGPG

[12] = molecular target: Gamma-aminobutyric acid receptor subunit alpha-1 (Rattus norvegicus, UniProt P62813)
Gamma-aminobutyric acid receptor subunit alpha-1, sequence (P62813 whole entry): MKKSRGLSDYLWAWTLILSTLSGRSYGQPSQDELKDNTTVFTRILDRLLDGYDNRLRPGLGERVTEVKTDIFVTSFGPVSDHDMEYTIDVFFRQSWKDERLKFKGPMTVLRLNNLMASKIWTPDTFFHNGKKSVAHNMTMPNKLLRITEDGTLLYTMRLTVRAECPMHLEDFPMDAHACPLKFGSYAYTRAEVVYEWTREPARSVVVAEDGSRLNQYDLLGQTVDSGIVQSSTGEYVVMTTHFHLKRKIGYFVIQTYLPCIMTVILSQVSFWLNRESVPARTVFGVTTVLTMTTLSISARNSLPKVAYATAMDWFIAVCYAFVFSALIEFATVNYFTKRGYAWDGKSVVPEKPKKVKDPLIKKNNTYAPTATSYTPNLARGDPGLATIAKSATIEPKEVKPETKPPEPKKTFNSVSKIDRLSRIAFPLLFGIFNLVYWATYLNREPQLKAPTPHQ
Also: assay procedure not described here.

Beta-2 adrenergic receptor, sequence (P07550 whole entry): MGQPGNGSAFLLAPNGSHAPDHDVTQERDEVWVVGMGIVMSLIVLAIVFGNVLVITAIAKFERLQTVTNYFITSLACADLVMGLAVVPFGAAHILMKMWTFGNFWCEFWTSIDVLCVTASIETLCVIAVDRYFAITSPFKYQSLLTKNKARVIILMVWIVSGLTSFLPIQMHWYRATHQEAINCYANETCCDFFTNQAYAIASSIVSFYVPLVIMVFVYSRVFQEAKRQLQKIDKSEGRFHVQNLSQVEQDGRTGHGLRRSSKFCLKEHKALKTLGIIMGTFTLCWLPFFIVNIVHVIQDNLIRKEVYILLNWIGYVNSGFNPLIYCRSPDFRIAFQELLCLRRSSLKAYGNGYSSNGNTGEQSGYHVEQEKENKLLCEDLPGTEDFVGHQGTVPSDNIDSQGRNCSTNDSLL

Row | SMILES | AC50 [1] [µM] | AC50 [2] [µM] | AC50 [3] [µM] | AC50 [4] [µM] | AC50 [5] [µM] | AC50 [6] [µM] | AC50 [7] [µM] | AC50 [8] [µM] | AC50 [9] [µM] | AC50 [10] [µM] | AC50 [11] [µM] | AC50 [12] [µM]
1 | O=C(O)CCNC(=O)c1ccc(/N=N/c2ccc(O)c(C(=O)O)c2)cc1 [BALSALAZIDE] | > 30 | > 30 | > 30 | 30 | 33.7 | > 30 | > 30 | > 30 | > 30 | > 30 | > 30 | > 30
2 | Clc1ccc(CCC(Cn2ccnc2)Sc2c(Cl)cccc2Cl)cc1 (stereo not drawn) [BUTOCONAZOLE] | > 30 | > 30 | > 30 | > 30 | > 30 | 20 | > 30 | > 30 | > 30 | 18 | > 30 | > 30
3 | CCOC(=O)C(C)(C)Oc1ccc(Cl)cc1 [CLOFIBRATE] | > 10 | > 30 | > 30 | > 30 | > 30 | > 30 | > 10 | > 10 | > 30 | > 30 | > 30 | > 10
4 | CCCCOc1ccc(C(=O)CCN2CCCCC2)cc1 [DYCLONINE] | > 10 | 2.3 | > 30 | > 30 | > 10 | 4.82 | > 10 | > 10 | > 30 | > 30 | > 30 | > 10
5 | CC/C=C\C/C=C\C/C=C\C/C=C\C/C=C\CCCC(=O)OCC [ICOSAPENT ETHYL] | > 30 | > 30 | > 30 | > 30 | > 30 | > 30 | > 30 | > 30 | > 30 | > 30 | > 30 | > 30
6 | NNC(=O)c1ccncc1 [ISONIAZID] | > 30 | > 30 | > 30 | > 30 | > 30 | > 30 | > 30 | > 30 | > 30 | > 30 | > 30 | > 30
7 | COc1ccc(CN2CCN(C(c3ccc(F)cc3)c3ccc(F)cc3)CC2)c(OC)c1OC [LOMERIZINE] | > 30 | 18 | 27 | > 30 | > 30 | 16 | 24 | > 30 | > 30 | > 30 | > 30 | > 30
8 | O=C1Nc2ccc(Cl)cc2C(c2ccccc2Cl)=NC1O (stereo not drawn) [LORAZEPAM] | > 10 | > 10 | > 30 | > 30 | > 10 | > 10 | > 10 | > 10 | > 30 | > 30 | > 30 | > 10
9 | Cc1ccnc2c1NC(=O)c1cccnc1N2C1CC1 [NEVIRAPINE] | > 10 | > 10 | > 30 | > 30 | > 10 | > 10 | > 10 | > 10 | > 30 | > 30 | > 30 | > 10
10 | OC[C@H]1O[C@@H](Oc2cc(O)cc(/C=C/c3ccc(O)cc3)c2)[C@H](O)[C@@H](O)[C@@H]1O [PICEID] | > 30 | > 30 | > 30 | > 30 | > 30 | > 30 | > 30 | > 30 | > 30 | > 30 | > 30 | > 30
11 | O=C1CC[C@@H](C(=O)N2CSC[C@H]2C(=O)O)N1 [PIDOTIMOD] ([pGlu]-[Thz]-OH) | > 30 | > 30 | > 30 | > 30 | > 30 | > 30 | > 30 | > 30 | > 30 | > 30 | > 30 | > 30
12 | CCC(NC(C)C)C(O)c1ccc(O)c2[nH]c(=O)ccc12 (stereo not drawn) [PROCATEROL] | 0.2 | > 30 | > 30 | > 30 | > 30 | > 30 | > 30 | > 30 | > 30 | > 30 | > 30 | > 30
13 | C=CC[N+]1([C@H]2C[C@H]3[C@@H]4CC[C@H]5C[C@H](O)[C@@H](N6CCOCC6)C[C@]5(C)[C@H]4CC[C@]3(C)[C@H]2OC(C)=O)CCCC1 [ROCURONIUM] | > 30 | > 30 | > 30 | > 30 | > 30 | > 30 | > 30 | > 30 | > 30 | > 30 | > 30 | > 30
14 | Cn1c(=O)c2c(ncn2CCOC(=O)C(C)(C)Oc2ccc(Cl)cc2)n(C)c1=O [THEOFIBRATE] | > 30 | > 30 | > 30 | > 30 | > 30 | > 30 | > 30 | > 30 | > 30 | > 30 | > 30 | > 30
